Test results taken from article PMC8625693, “Synthesis and Structure-Activity Relationships of New 2-Phenoxybenzamides with Antiplasmodial Activity” (Pharmaceuticals, 2021).
Like-named read-outs stand apart in the source and are kept apart here.

Tests used:
[1] = In vitro cytotoxicity with L-6 cells (Alamar Blue); format: cell-based, rat
Protocol: (§1) All newly synthesized compounds were tested for their antiplasmodial activity against the chloroquine-sensitive strain Plasmodium falciparum NF54. Cytotoxicity was determined using rat skeletal myofibroblasts (L-6 cells). As standards chloroquine and podophyllotoxin were used.
(§2) In vitro cytotoxicity was determined using a primary cell line of rat skeletal myofibroblasts. The assay was performed in 96-well microtiter plates, each well containing 0.1 mL of RPMI 1640 medium, supplemented with 0.1% L-glutamine (200 mM) and 10% fetal bovine serum, as well as 4000 L-6 cells. Serial drug dilutions of 11 3-fold dilution steps (covering a range from 100–0.002 µg/mL) were prepared. After 70 h of incubation time, the plates were inspected under an inverted microscope to ensure sterile conditions and growth of the controls. […] Podophyllotoxin (Sigma P4405) was used as control.

[2] = system: P. falciparum NF54; assay: In vitro microplate assay against P. falciparum NF54 (3H-hypoxanthine incorporation, erythrocytic stages); format: cell-based, Plasmodium falciparum
Protocol: as §1
In vitro activity against erythrocytic stages of P. falciparum was determined with a ^3H-hypoxanthine incorporation assay, using the chloroquine sensitive NF54 strain [44]. Chloroquine (Sigma C6628) was used as standard. Test compounds were dissolved in DMSO at 10 mg/mL and added to parasite cultures incubated in RPMI 1640 medium without hypoxanthine, supplemented with HEPES (5.94 g/L, NaHCO3 (2.1 g/L), neomycin (100 U/mL), Albumax (5 g/L) and washed human red blood cells A^+ at 2.5% hematocrit (0.3% parasitemia). Serial drug dilutions of 11 3-fold dilution steps (covering a range from 100–0.002 µg/mL) were prepared. The 96-well plates were incubated at a humidified atmosphere at 37 °C; 4% CO2, 3% O2, 93% N2. After 48 h, 0.05 mL of ^3H-hypoxanthine (=0.5 µCi) was added to each well. The plates were incubated for another 24 h under the same conditions. Then, the plates were harvested with a Betaplate cell harvester (Wallac, Zurich, Switzerland). The red blood cells were transferred onto glass fiber filter and washed with distilled water. The dried filters were inserted into a plastic foil with 10 mL of scintillation fluid and counted in a Betaplate liquid scintillation counter. IC50 values were determined from sigmoidal inhibition curves by linear regression using Microsoft Excel. Chloroquine was used as control.

[3] = Parallel artificial membrane permeability assay (PAMPA); settings: pH 7.4
Protocol: The PAMPA was performed using a Corning Gentest Pre-coated PAMPA Plate System at a pH of 7.4. It consists of 96-well polystyrene plates, whereas the donor-plate (bottom plate) is a conventional 96-well microtiter plate. The base of the acceptor-plate (top plate) consists of a porous membrane. The pores are lined with a lipid-oil-lipid trilayer. Stock solutions (10 mM) of each test compound were prepared in DMSO or MeOH and then further diluted to a final concentration of 200 µM with phosphate-buffered saline (PBS) at a pH of 7.4. Compound solutions were then added to the wells of the donor plate and pure PBS was added to each well of the acceptor plate. Compounds and negative control (pure PBS) were tested in quadruplicates. Donor and acceptor plate were coupled and incubated at ambient temperature for 5 h. After that, the plates were separated and solutions from each well of both plates were transferred onto 96-well UV-Star Microplates (Greiner Bio-One). The UV-absorption was measured at different wavelengths (between 200 and 300 nm) by a SpectraMax M3 UV plate reader (Molecular Devices). The concentrations were received from a calibration curve for each substance. The plates were analyzed at a wavelength were the R^2 value of the calibration curve was higher than 0.99 [48]. […] (2) cequ=cDt* VD+cAt* VA/VD+VA where: • cD(t)—compound concentration in donor well at time t.
Recovery of compounds from donor and acceptor wells (mass retention) was calculated as shown in the equation below. Data were only accepted when recovery exceeded 70%. (3) R=1−cDt∗ VD+cAt∗ VA/c0∗ VD where: • R—mass retention (%); • cA(t)—compound concentration in acceptor well at time t; • cD(t)—compound concentration in donor well at time t; • c0—initial compound concentration in donor well; • VD—donor well volume; • VA—acceptor well volume.

[4] = molecular target: T1, CYP3A4 (Homo sapiens, UniProt P08684); assay: Cytochrom P450 3A4 inhibition assay (P450-Glo, luciferin-IPA); format: in vitro ADME; settings: recombinant human CYP3A4 Supersomes (+ oxidoreductase + b5), probe luciferin-IPA, stock solutions diluted to 20 µM, pH 7.4, triplicate
T1 construct: purchased Corning, Glendale, AZ, USA
T1 sequence (P08684 2-503 limits assumed): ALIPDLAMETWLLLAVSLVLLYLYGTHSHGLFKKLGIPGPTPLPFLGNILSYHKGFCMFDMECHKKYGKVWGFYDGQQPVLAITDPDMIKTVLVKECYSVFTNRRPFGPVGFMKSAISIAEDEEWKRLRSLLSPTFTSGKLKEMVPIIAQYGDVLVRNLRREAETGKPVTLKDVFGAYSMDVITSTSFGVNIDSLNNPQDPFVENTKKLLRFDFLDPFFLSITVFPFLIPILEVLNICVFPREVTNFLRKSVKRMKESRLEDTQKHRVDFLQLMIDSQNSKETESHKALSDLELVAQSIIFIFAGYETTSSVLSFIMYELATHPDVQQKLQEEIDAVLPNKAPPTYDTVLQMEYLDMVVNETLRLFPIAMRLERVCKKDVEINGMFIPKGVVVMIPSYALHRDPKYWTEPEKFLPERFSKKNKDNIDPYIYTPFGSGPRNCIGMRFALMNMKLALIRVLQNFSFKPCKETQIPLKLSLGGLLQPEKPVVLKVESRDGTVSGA
Protocol: The CYP3A4 inhibition assay was performed using 96-well White Plates (Greiner Bio-One) at a pH of 7.4. […] Stock solutions were further diluted to a final concentration of 20 µM using water (HPLC grade). The luciferin IPA stock solution (3 mM) was diluted to a final concentration of 0.3 mM using water (HPLC grade). The CYP3A4 reaction mixture was prepared by mixing water (HPLC grade) with potassium phosphate buffer (1 M), luciferin IPA (0.3 mM) and CYP3A4 membrane (1 pmol/µL). The control reaction mixture was prepared using water (HPLC grade), potassium phosphate buffer (1 M), luciferin IPA (0.3 mM) and membrane without CYP activity (1 pmol/µL). Solutions A and B of the NADPH regeneration system were mixed and HPLC grade water was added. The reconstituted luciferin detection reagent was prepared by mixing the reconstituted buffer with esterase with the luciferin detection reagent. Then, solutions of test compounds and standard were added to the wells of the 96-well White Plate, each was tested in triplicate. The CYP3A4 reaction mixture was added to each well and the plate was incubated for 10 min at room temperature. After that, the NADPH regeneration system was added, inducing the reaction followed by an incubation time of 10 min at ambient temperature. By adding the reconstituted luciferin detection reagent, the reaction was terminated, and a luminescent signal was formed. Luminescence was measured by a SpectraMax M3 UV plate reader (Molecular Devices). The relative light units (RLU) were received from a calibration curve with beetle luciferin. […] The CYP3A4 inhibition (%) was calculated from the RLU.

[5] = system: L-6 cells; assay: In vitro cytotoxicity with L-6 cells (Alamar Blue); format: cell-based, rat
Protocol: as §1, §2

[6] = rat skeletal myofibroblasts, average of four determinations, read-out: Cytotoxicity L-6 Cells IC50
[7] = Plasmodium falciparum, NF54, chloroquine-sensitive strain NF54, blood stages, average of four determinations, read-out: P.f. NF54 IC50
[8] = chloroquine-sensitive strain NF54, blood stages, average of four determinations, read-out: P.f. NF54 IC50
[9] = rat, Cytotoxicity L-6 Cells IC50

Structure (SMILES) | Papp at 5 h, 200 µM [3] [×10⁻⁶ cm/s] | IC50 [2, 7] [µM] | inhibition at 10 min, 20 µM [4] [%] | IC50 at 72 h [1, 9] [µM] | further results
CCN(CC)CCCC(C)Nc1ccnc2cc(Cl)ccc12 (stereo not drawn) [CQ, chloroquine, reference compound] | – | – | – | – | IC50 at 72 h [1, 6]: 90.9 µM; IC50 ([2]; Plasmodium falciparum, NF54, read-out: P.f. NF54 IC50): 0.009 µM
CC(C)(C)OC(=O)N1CCN(c2ccccc2NC(=O)c2cccc(C(F)(F)F)c2Oc2ccccc2)CC1 [Compound 6, tert-Butyl-4-{2-[2-phenoxy-3-(trifluoromethyl)benzamido]phenyl}piperazine-1-carboxylate] | 3 | 1.01 to 1.15 | 87 | – | IC50 at 72 h ([1]; rat, rat skeletal myofibroblasts, average of four determinations, read-out: Cytotoxicity L-6 Cells IC50): 128 µM; IC50 [2, 8]: 1.01 µM
CC(C)(C)OC(=O)N1CCN(c2ccccc2NC(=O)c2cccc(C(F)(F)F)c2)CC1 [Compound 7, tert-Butyl-4-{2-[3-(trifluoromethyl)benzamido]phenyl}piperazine-1-carboxylate] | 0.08 | 3.74 | – | 113 | –
CC(=O)Nc1ccc(Oc2c(C(=O)Nc3ccccc3N3CCN(C(=O)OC(C)(C)C)CC3)cccc2C(F)(F)F)cc1 [Compound 8, tert-Butyl-4-{2-[2-(4-acetamidophenoxy)-3-(trifluoromethyl)benzamido]phenyl}piperazine-1-carboxylate] | 4.06 | 1.01 to 1.15 | 99 | 73 | IC50 [2, 8]: 1.15 µM
O=C(Nc1ccccc1)c1cccc(C(F)(F)F)c1Oc1ccc(F)cc1 [Compound 12, 2-(4-Fluorophenoxy)-N-phenyl-3-(trifluoromethyl)benzamide] | 10.1 | 9.33 to 21.3 | – | 129 to 202 | IC50 ([5]; rat, 72 h): 202 µM; IC50 [2, 8]: 9.33 µM
CC(C)(C)OC(=O)Nc1ccccc1NC(=O)c1cccc(C(F)(F)F)c1Oc1ccc(F)cc1 [Compound 13, tert-Butyl-N-{2-[2-(4-fluorophenoxy)-3-(trifluoromethyl)benzamido]phenyl}carbamate] | 8.72 | 1.9 | 90 | – | –
Nc1ccccc1NC(=O)c1cccc(C(F)(F)F)c1Oc1ccc(F)cc1 [Compound 14, N-(2-Aminophenyl)-2-(4-fluorophenoxy)-3-(trifluoromethyl)benzamide] | 11.4 | – | – | 129 | –
CC(=O)N1CCN(c2ccccc2NC(=O)c2cccc(C(F)(F)F)c2Oc2ccc(F)cc2)CC1 [Compound 17, N-[2-(4-Acetylpiperazin-1-yl)phenyl]-2-(4-fluorophenoxy)-3-(trifluoromethyl)benzamide] | 10.1 | 2.53 | – | 27.1 | –
NC(=O)N1CCN(c2ccccc2NC(=O)c2cccc(C(F)(F)F)c2Oc2ccc(F)cc2)CC1 [Compound 21, N-[2-(4-Carbamoylpiperazin-1-yl)phenyl]-2-(4-fluorophenoxy)-3-(trifluoromethyl)benzamide] | 7.44 | – | – | 31.8 to 35.4 | IC50 ([5]; rat, 72 h): 35.4 µM
CN(C)C(=O)N1CCN(c2ccccc2NC(=O)c2cccc(C(F)(F)F)c2Oc2ccc(F)cc2)CC1 [Compound 22, N-{2-[4-(N,N-Dimethylcarbamoyl)piperazin-1-yl]phenyl}-2-(4-fluorophenoxy)-3-(trifluoromethyl)benzamide] | – | 2.3 | – | 20.2 | –
CC(C)(C)OC(=O)N1CCN(c2cccc(NC(=O)c3cccc(C(F)(F)F)c3Oc3ccc(F)cc3)c2)CC1 [Compound 36, tert-Butyl-4-{3-[2-(4-fluorophenoxy)-3-(trifluoromethyl)benzamido]phenyl}piperazine-1-carboxylate] | 6.17 | 3.3 | 96 | 124 | –
CC(C)(C)OC(=O)N1CCN(c2ccc(NC(=O)c3cccc(C(F)(F)F)c3Oc3ccc(F)cc3)cc2)CC1 [Compound 37, tert-Butyl-4-{4-[2-(4-fluorophenoxy)-3-(trifluoromethyl)benzamido]phenyl}piperazine-1-carboxylate] | 0.09 | 0.269 | 93 | 124 | –
CC(C)(C)C(=O)N1CCN(c2cccc(NC(=O)c3cccc(C(F)(F)F)c3Oc3ccc(F)cc3)c2)CC1 [Compound 38, N-{3-[4-(2,2-Dimethylpropanoyl)piperazin-1-yl]phenyl}-2-(4-fluorophenoxy)-3-(trifluoromethyl)benzamide] | 1.17 | 3.17 | – | 78 to 99.6 | IC50 ([5]; rat, 72 h): 78 µM
Nc1cccc(NC(=O)c2cccc(C(F)(F)F)c2Oc2ccc(F)cc2)c1 [Compound 50, N-(3-Aminophenyl)-2-(4-fluorophenoxy)-3-(trifluoromethyl)benzamide] | 18.4 | 51.5 to 51.9 | – | 104 | IC50 [2, 8]: 51.5 µM
Nc1ccc(NC(=O)c2cccc(C(F)(F)F)c2Oc2ccc(F)cc2)cc1 [Compound 51, N-(4-Aminophenyl)-2-(4-fluorophenoxy)-3-(trifluoromethyl)benzamide] | 12.9 | 51.5 to 51.9 | 88 | 130 | IC50 [2, 8]: 55.9 µM
CC(C)(C)C(=O)N1CCN(c2ccc(NC(=O)c3cccc(C(F)(F)F)c3Oc3ccccc3)cc2)CC1 [Compound 55, N-{4-[4-(2,2-Dimethylpropanoyl)piperazin-1-yl]phenyl}-2-phenoxy-3-(trifluoromethyl)benzamide] | 11.2 | 4.66 | 60 | 89.8 | –
COc1cc([C@@H]2c3cc4c(cc3[C@H](O)[C@H]3COC(=O)[C@H]23)OCO4)cc(OC)c1OC [POD, podophyllotoxin, reference compound] | – | – | – | – | IC50 [5, 6]: 0.012 µM
Cn1c(=O)c2c(ncn2C)n(C)c1=O [caffeine, reference compound] | 8 | – | – | – | –
